According to ChEMBL document CHEMBL1148710, “Alpha2-adrenoreceptors profile modulation. 3.1 (R)-(+)-m-nitrobiphenyline, a new efficient and alpha2C-subtype selective agonist” (J Med Chem, 2007):
Calls of active or inactive are those of the source. The calls are words filed in the database; no cut-off is given here.

Key:
[1] = target: T1, Alpha-2C adrenergic receptor (Homo sapiens) (UniProt P18825); test: Intrinsic activity at human adrenergic Alpha-2C receptor expressed in CHO cells assessed as forskolin-induced cAMP accumulation relative to (-)- noradrenaline; type: functional, cell-based
T1 sequence (whole entry): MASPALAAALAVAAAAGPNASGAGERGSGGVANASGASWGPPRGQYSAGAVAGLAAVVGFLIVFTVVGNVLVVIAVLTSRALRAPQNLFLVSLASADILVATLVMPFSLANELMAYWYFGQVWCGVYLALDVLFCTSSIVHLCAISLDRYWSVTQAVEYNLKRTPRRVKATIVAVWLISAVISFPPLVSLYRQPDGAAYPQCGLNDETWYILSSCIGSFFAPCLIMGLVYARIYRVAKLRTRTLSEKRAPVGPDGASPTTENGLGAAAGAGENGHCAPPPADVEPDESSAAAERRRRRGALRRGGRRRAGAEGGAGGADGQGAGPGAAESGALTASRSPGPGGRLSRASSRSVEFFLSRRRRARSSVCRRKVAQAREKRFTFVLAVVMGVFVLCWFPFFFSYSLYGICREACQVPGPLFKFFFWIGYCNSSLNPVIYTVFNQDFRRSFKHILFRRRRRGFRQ

[2] = target: T1, Alpha-2C adrenergic receptor (Homo sapiens); conditions: CHO
Description: (§2) Displacement of [3H]RX 821002 from human adrenergic Alpha-2C receptor expressed in CHO cells

[3] = target: T2, Alpha-2C adrenergic receptor (Homo sapiens, UniProt P18825); test: Displacement of [3H]RX 821002 from human adrenergic alpha-2c receptor expressed in CHO cells in presence of GppNHp/Na; type: cell-based
T2 sequence (P18825 whole entry): T1 sequence (whole entry)

[4] = target: T3, Alpha-2B adrenergic receptor (Homo sapiens, UniProt P18089); test: Displacement of [3H]RX 821002 from human adrenergic alpha-2B receptor expressed in CHO cells; type: cell-based
T3 sequence (P18089 whole entry): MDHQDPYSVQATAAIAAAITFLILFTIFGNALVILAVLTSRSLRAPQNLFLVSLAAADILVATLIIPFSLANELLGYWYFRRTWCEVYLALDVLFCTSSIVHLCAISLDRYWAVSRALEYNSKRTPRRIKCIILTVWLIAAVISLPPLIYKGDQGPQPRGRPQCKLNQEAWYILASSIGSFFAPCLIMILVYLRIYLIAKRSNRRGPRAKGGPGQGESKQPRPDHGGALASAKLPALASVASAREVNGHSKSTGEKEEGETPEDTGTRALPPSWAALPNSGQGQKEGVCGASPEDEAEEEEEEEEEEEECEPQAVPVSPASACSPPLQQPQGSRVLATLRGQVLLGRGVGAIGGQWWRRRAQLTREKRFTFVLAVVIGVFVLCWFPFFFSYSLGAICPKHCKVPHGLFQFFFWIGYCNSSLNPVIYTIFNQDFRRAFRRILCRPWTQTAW

[5] = target: T4, Alpha-2A adrenergic receptor (Homo sapiens) (UniProt P08913); conditions: CHO
T4 sequence (whole entry): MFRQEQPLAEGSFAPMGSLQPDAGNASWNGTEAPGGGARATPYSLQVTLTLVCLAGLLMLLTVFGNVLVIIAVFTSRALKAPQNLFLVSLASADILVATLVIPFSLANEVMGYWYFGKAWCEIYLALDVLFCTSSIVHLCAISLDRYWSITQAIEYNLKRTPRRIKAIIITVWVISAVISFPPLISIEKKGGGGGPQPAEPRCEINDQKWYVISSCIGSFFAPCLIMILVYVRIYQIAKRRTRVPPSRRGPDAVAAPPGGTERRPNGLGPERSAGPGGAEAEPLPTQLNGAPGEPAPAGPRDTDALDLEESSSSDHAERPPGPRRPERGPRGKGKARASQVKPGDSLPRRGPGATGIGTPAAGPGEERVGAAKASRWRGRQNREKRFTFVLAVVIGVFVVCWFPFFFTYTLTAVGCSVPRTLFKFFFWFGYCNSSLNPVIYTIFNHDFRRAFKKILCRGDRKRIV
Description: Antagonistic potency at human adrenergic alpha2A receptor expressed in CHO cells assessed as forskolin-induced cAMP accumulation

[6] = target: T5, Alpha-2B adrenergic receptor (Homo sapiens) (UniProt P18089); test: Antagonistic potency at human adrenergic alpha-2B receptor expressed in CHO cells assessed as forskolin-induced cAMP accumulation; type: functional, cell-based
T5 sequence (whole entry): T3 sequence (P18089 whole entry)

[7] = target: T2, Alpha-2C adrenergic receptor; test: biochemical
Description: as §2

[8] = target: T2, Alpha-2C adrenergic receptor; test: Agonistic potency at human adrenergic Alpha-2C receptor expressed in CHO cells assessed as forskolin-induced cAMP accumulation; type: functional, cell-based
[9] = target: T6, Alpha-2A adrenergic receptor (Homo sapiens, UniProt P08913); test: Displacement of [3H]RX 821002 from human adrenergic alpha2A receptor expressed in CHO cells; type: cell-based
T6 sequence (P08913 whole entry): T4 sequence (whole entry)

[10] = target: T5, Alpha-2B adrenergic receptor (Homo sapiens); test: Intrinsic activity at human adrenergic alpha2B receptor expressed in CHO cells assessed as forskolin-induced cAMP accumulation relative to (-)- noradrenaline; type: functional, cell-based
[11] = target: T5, Alpha-2B adrenergic receptor (Homo sapiens); test: (§1) Agonistic potency at human adrenergic alpha-2B receptor expressed in CHO cells assessed as forskolin-induced cAMP accumulation; type: functional, cell-based
[12] = target: T4, Alpha-2A adrenergic receptor (Homo sapiens); test: Intrinsic activity at human adrenergic alpha-2A receptor expressed in CHO cells assessed as forskolin-induced cAMP accumulation relative to (-)-noradrenaline; type: functional, cell-based
[13] = target: T3, Alpha-2B adrenergic receptor; test: as §1; type: functional, cell-based
[14] = target: T6, Alpha-2A adrenergic receptor; test: Agonistic potency at human adrenergic alpha-2A receptor expressed in CHO cells assessed as forskolin-induced cAMP accumulation

Structure (SMILES) | Intrinsic activity [1] | pKiH [2] | pKiL [2] | Ki [3] [nM] | Ki [4] [nM] | pKb [5] | pKb [6] | Ki [7] [nM] | EC50 ([8]; read-out: EC50) [nM] | EC50 ([8]; read-out: Log EC50 (converted)) [nM] | Ki [9] [nM] | Intrinsic activity [10] | Activity [11] | Intrinsic activity [12] | EC50 [13] [nM] | EC50 [14] [nM]
C[C@@H](Oc1ccccc1-c1cccc([N+](=O)[O-])c1)C1=NCCN1 | 0.8 | 8.21 | 6.42 | 363 | 741 | 7.11 | 6.07 | 257 | 38 | 10 | 81.3 | – | – | – | – | –
C[C@H](Oc1ccccc1-c1cccc([N+](=O)[O-])c1)C1=NCCN1 | 0.45 | – | – | – | 1580 | 7.35 | 5.93 | 537 | – | 741 | 72.4 | – | – | – | – | –
CC(Oc1ccccc1-c1cccc(F)c1)C1=NCCN1 (racemic) | 1.15 | – | – | – | – | – | – | – | – | – | – | < 0.3 | inactive | 0.58 | – | –
CC(Oc1ccccc1-c1cccc(O)c1)C1=NCCN1 (racemic) | 1.15 | – | – | – | – | – | – | – | – | – | – | 0.5 | – | < 0.3 | – | –
Cc1cccc(C(C)c2c[nH]cn2)c1C (single isomer, unassigned) [DEXMEDETOMIDINE] | – | 10 | 8.26 | 30.9 | – | – | – | – | – | – | – | – | – | – | – | –
CC(Oc1ccccc1-c1cccnc1)C1=NCCN1 (racemic) | 1 | – | – | – | – | – | – | – | – | – | – | 0.5 | – | 0.5 | – | –
C[C@H](Oc1ccccc1-c1ccccc1)C1=NCCN1 | 0.9 | – | – | – | 589 | – | – | 302 | – | 18.6 | 91.2 | 0.65 | – | 0.8 | 692 | 74.1
CC(Oc1ccccc1-c1cccc([N+](=O)[O-])c1)C1=NCCN1 (racemic) | 0.6 | – | – | – | – | – | – | – | – | – | – | < 0.3 | inactive | < 0.3 | – | –
C[C@@H](Oc1ccccc1-c1ccccc1)C1=NCCN1 | 0.7 | – | – | – | 1260 | – | – | 977 | – | 112 | 186 | 0.4 | – | 0.4 | 100000 | 28800
CC(Oc1ccccc1-c1ccccc1)C1=NCCN1 (racemic) | 0.8 | – | – | – | – | – | – | – | – | – | – | 0.5 | – | 0.7 | – | –
